Here are results for one molecule from US20010011137A1, “Use of triphenylmethyl-1,2,3-triazoles” (priority 1996, published 2001).

In general, melting point refers to the temperature, or range, at which the solid turns liquid.

`Clc1ccccc1C(c1ccccc1)(c1ccccc1)n1ccnn1` [Example 10, 1-(2-chlorotrityl)-1H-1,2,3-triazole] yielded a melting point of 162 °C.
